Entries after “also recorded” stand apart in the source; their conditions may differ.
Experiments:
[1] = target: T1, organic anion transporting polypeptide (OATP)1B1 (Homo sapiens, UniProt Q9Y6L6); experiment: Elagolix as substrate of OATP1B1
T1 sequence (Q9Y6L6 1-691): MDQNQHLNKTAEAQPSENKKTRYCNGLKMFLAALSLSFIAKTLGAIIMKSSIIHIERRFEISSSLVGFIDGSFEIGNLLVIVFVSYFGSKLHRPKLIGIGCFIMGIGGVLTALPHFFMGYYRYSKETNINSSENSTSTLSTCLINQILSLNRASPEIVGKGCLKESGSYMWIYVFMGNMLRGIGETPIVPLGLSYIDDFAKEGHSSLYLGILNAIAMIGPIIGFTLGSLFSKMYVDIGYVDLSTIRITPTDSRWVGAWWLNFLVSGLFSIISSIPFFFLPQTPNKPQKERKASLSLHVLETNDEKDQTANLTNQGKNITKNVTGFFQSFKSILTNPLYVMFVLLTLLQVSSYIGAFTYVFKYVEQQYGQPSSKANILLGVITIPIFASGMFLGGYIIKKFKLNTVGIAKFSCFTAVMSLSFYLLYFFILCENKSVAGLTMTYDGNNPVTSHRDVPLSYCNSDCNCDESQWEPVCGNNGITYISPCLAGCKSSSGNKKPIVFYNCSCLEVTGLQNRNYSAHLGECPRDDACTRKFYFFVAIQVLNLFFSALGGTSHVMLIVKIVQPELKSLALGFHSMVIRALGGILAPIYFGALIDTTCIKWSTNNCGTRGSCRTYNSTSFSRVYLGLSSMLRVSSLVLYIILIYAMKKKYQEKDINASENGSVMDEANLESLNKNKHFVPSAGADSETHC
Excerpt: Elagolix is a substrate of CYP3A, P-gp, and organic anion transporting polypeptide (OATP)1B1. Clinically meaningful interactions are not expected when elagolix is co-administered with drugs that inhibit CYP3A or P-gp.

pKa of elagolix = assay type: physicochemical
[2] = BCS classification of Compound A; assay type: physicochemical
Excerpt: Release Profile Drugs administered via oral solid dosage forms should dissolve in vivo before systemic absorption can take place. There are number of factors which affect drug dissolution, including physicochemical properties of the drug substance. […] Incomplete dissolution may result in highly variable inter- and intra patient bioavailability. It has been determined in the present application that Compound A is a BCS class III drug. It also has been determined in the present application that the monosodium salt of Compound A has a tendency to form a gel, particularly when present at an amount greater than about 10% by weight in the absence of an appropriate anti-gelling agent, when administered orally in a solid dosage form. Thus, it is desirable to provide oral solid dosage forms that facilitate drug dissolution.

[3] = test system: bone mineral density (BMD); experiment: Bone mineral density by DXA (lumbar spine, Z-score) in placebo-controlled and extension studies; assay type: in vivo, human; details: for patients with Z-score below the normal lower bound of −2.0: following 12 months of treatment
Method: In the placebo-controlled and extension clinical studies, BMD was measured by DXA. Changes observed in BMD at other anatomical sites (femoral neck, total hip) were generally smaller than lumbar spine.

rats = experiment: Fertility and repeat-dose studies in rats; assay type: in vivo, rat
Excerpt: (§1) Based on pharmacologic actions of elagolix in humans a reversible effect on fertility may be expected in women.

menstrual bleeding = experiment: Effects on menstrual bleeding patterns (electronic daily diary; bleeding/spotting days, intensity, amenorrhea, resumption of menses); assay type: in vivo, human; details: for Mean bleeding/spotting days in prior 28 days / Mean Intensity score: Baseline; for Mean Intensity score: scale 1 to 4 (1 = spotting, 4 = heavy), subjects with at least 1 day of bleeding or spotting in 28 day interval
healthy women = experiment: 3-menstrual cycle study in healthy women (ovulation, endometrial thickness); assay type: in vivo, human; details: 150 mg QD and 200 mg BID, vs pretreatment
mice = experiment: 2-year carcinogenicity study in mice; assay type: in vivo; details: mouse, any dose
[4] = test system: CYP3A, CYP2D6, CYP2C8, uridine glucuronosyltransferases (UGTs); experiment: Metabolism pathways of elagolix; assay type: in vitro ADME, human
monkeys = experiment: Repeat-dose study in monkeys (reproductive organs); assay type: in vivo, monkey; details: monkeys, 75, 150, 300 and 600 mg/kg/day, all doses
Excerpt: as §1

[5] = test system: premenopausal women with HMB, uterine fibroids and adenomyosis; experiment: Phase 2b trial in women with HMB and uterine fibroids, subgroup with non-dominant adenomyosis; assay type: in vivo, human
Method: Patients and Methods: […] Elagolix studied in this clinical trial comprised the sodium salt of Compound A. All subjects were evaluated with ultrasound and a subset volunteered to also be evaluated by MRI. […] Efficacy and safety were evaluated post hoc in a subgroup of women who had confirmed non-dominant adenomyosis (ultrasound/MRI) at baseline. Menstrual blood loss (MBL) was quantified from sanitary products (alkaline hematin). […] Adverse events (AEs) were recorded.

[6] = test system: luteinizing hormone (LH) and follicle-stimulating hormone (FSH); experiment: Suppression of LH and FSH levels; assay type: in vivo, human; details: begins within hours of administration, reversible upon discontinuation
Excerpt: (I) Elagolix is an orally administered, short-acting, selective, non-peptide small molecule GnRH receptor antagonist that blocks endogenous GnRH signaling by binding competitively to GnRH receptors in the pituitary gland. […] LH and FSH suppression begins within hours of administration and is readily reversible upon discontinuation of elagolix.

[7] = Elagolix 150 mg QD, On Treatment Month 6
[8] = Elagolix 150 mg QD, On Treatment Month 12
[9] = Elagolix 200 mg BID, On Treatment Month 6
[10] = Elagolix 200 mg BID, On Treatment Month 12

COc1cccc(-c2c(C)n(Cc3c(F)cccc3C(F)(F)F)c(=O)n(C[C@H](NCCCC(=O)O)c3ccccc3)c2=O)c1F [Compound A, 4-((R)-2-[5-(2-fluoro-3-methoxy-phenyl)-3-(2-fluoro-6-trifluoromethyl-benzyl)-4-methyl-2,6-dioxo-3,6-dihydro-2H-pyrimidin-1-yl]-1-phenyl-ethylamino)-butyric acid]
substrate of organic anion transporting polypeptide (OATP)1B1 [1]: substrate | pKa (pKa of elagolix): ~7.89 | BCS class [2]: BCS class III | % Subjects Z-score ≤ −1.5 of Lumbar Spine [3, 7]: 0.8% | Mean Percent Change From Baseline in Bone Mineral Density of Lumbar Spine [3, 7]: −0.52% | % Subjects Z-score ≤ −1.5 of Lumbar Spine [3, 8]: 1.3% | Mean Percent Change From Baseline in Bone Mineral Density of Lumbar Spine [3, 8]: −0.87% | % Subjects Z-score ≤ −1.5 of Lumbar Spine [3, 9]: 4.1% | Mean Percent Change From Baseline in Bone Mineral Density of Lumbar Spine [3, 9]: −2.54% | % Subjects Z-score ≤ −1.5 of Lumbar Spine [3, 10]: 5.1% | Mean Percent Change From Baseline in Bone Mineral Density of Lumbar Spine [3, 10]: −3.76% | BMD after stopping treatment ([3]; both elagolix treatment groups, lumbar spine, total hip and femoral neck, post-treatment months 6 and 12): progressive recovery of BMD | patients with Z-score below the normal lower bound of −2.0 ([3]; 150 mg daily dose): no patient | patients with Z-score below the normal lower bound of −2.0 ([3]; 200 mg BID dose): less than 1% | effect in fertility study (rats; doses 50, 150, 300 mg/kg/day): no effect | ovarian findings in repeat-dose study (rats; doses 600, 800 mg/kg/day): involution and a decrease in corpora lutea in ovaries | Mean bleeding/spotting days in prior 28 days (menstrual bleeding; Elagolix 150 mg Once Daily): 5.3 days | Mean Intensity score (menstrual bleeding; Elagolix 150 mg Once Daily): 2.6 | Mean bleeding/spotting days in prior 28 days (menstrual bleeding; Elagolix 200 mg Twice Daily): 5.7 days | Mean Intensity score (menstrual bleeding; Elagolix 200 mg Twice Daily): 2.5 | incidence of amenorrhea (menstrual bleeding; first six months of treatment, 150 mg once daily): 6-17% | incidence of amenorrhea (menstrual bleeding; first six months of treatment, 200 mg twice daily): 13-52% | incidence of amenorrhea (menstrual bleeding; second 6 months of treatment, 150 mg once daily): 11-15% | incidence of amenorrhea (menstrual bleeding; second 6 months of treatment, 200 mg twice daily): 46-57% | bleeding and spotting days and bleeding intensity (menstrual bleeding; up to 12 months, subjects who reported menstrual bleeding): dose-dependent reduction in mean number of bleeding and spotting days and bleeding intensity | mean endometrial thickness (transvaginal ultrasound) (healthy women): dose dependent decrease in the mean endometrial thickness | tumors, 2-year carcinogenicity study (mice): no increase in tumors | Metabolism (major pathway) [4]: CYP3A (major) | Metabolism, minor pathways ([4]; listed as Elagolix): Minor pathways include: CYP2D6,; also recorded: CYP2C8, and uridine; also recorded: glucuronosyltransferases (UGTs) | reproductive organ findings in repeat-dose study (monkeys): reversible atrophy of reproductive organs (cervix, uterus and vagina) | proportion of women with ≥50% reduction from baseline in HMB and <80 mL MBL in the last 28 days of treatment ([5]; Cohort 1, elagolix 300 mg BID with 0.5 mg E2/0.1 mg NETA (n=12)): 83% | proportion of women with ≥50% reduction from baseline in HMB and <80 mL MBL in the last 28 days of treatment ([5]; Cohort 1, elagolix 300 mg BID with 1.0 mg E2/0.5 mg NETA (n=5)): 100% | proportion of women with ≥50% reduction from baseline in HMB and <80 mL MBL in the last 28 days of treatment ([5]; Cohort 2, elagolix 600 mg QD with 0.5 mg E2/0.1 mg NETA (n=14)): 93% | proportion of women with ≥50% reduction from baseline in HMB and <80 mL MBL in the last 28 days of treatment ([5]; Cohort 2, elagolix 600 mg QD with 1.0 mg E2/0.5 mg NETA (n=9)): 89% | At least 1 AE, related or unrelated to study drug ([5]; elagolix-treated groups (n=22) in Cohort 1): 77% | At least 1 AE, related or unrelated to study drug ([5]; elagolix-treated groups (n=38) in Cohort 2): 67% | LH and FSH levels [6]: dose-dependent suppression

Reference: patent US12102637B2, “Pharmaceutical formulations for treating endometriosis, uterine fibroids, polycystic ovary syndrome or adenomyosis” (AbbVie Inc., priority 2017, dated 2024)
